Laboratory results taken from publication PMC6792352, “Limited Chemical Structural Diversity Found to Modulate Thyroid Hormone Receptor in the Tox21 Chemical Library” (Environmental Health Perspectives, 2019).
Where a name gives a salt, the structure may show the parent alone.

assay: in vitro; conditions: rat, gh3-tre-luc cells, AC50 (uM) modified / 1000

Compound	CC50 at 24 h [µM]
COc1ccc2cc1Oc1cc3c(cc1OC)CC[N+](C)(C)[C@H]3Cc1ccc(cc1)Oc1c(OC)c(OC)cc3c1[C@@H](C2)[N+](C)(C)CC3 [Metocurine iodide]	> 50
COc1ccc(OC)cc1 [Hydroquinone dimethyl ether]	> 90
O=c1oc2ccccc2c(O)c1C(CC(O)c1ccc(-c2ccc(Br)cc2)cc1)c1ccccc1 (centres unmarked) [Bromadiolone]	> 90
COc1cccc2c1[C@@H]1CN(CCCCn3c(=O)[nH]c4c(sc5ncc(-c6ccccc6)nc54)c3=O)C[C@@H]1CO2 [Fiduxosin hydrochloride]	13.1
NNS(=O)(=O)c1ccc(Oc2ccc(S(=O)(=O)NN)cc2)cc1 [4,4'-Oxybis(benzenesulfohydrazide)]	> 90
CCCCCC(C)OC(=O)COc1ccc(Cl)c2cccnc12 (centres unmarked) [Cloquintocet-mexyl]	71.4
Cc1cc(O)c(Cl)c(C)c1Cl [2,4-Dichloro-3,5-dimethylphenol]	56.9
C1COC(NC(C2CC2)C2CC2)=N1 [Rilmenidine]	> 50
CC[C@H](C)[C@H]1O[C@]2(CC[C@@H]1C)C[C@@H]1C[C@@H](C/C=C(\C)[C@@H](O[C@H]3C[C@H](OC)[C@@H](O[C@H]4C[C@H](OC)[C@@H](O)[C@H](C)O4)[C@H](C)O3)[C@@H](C)/C=C/C=C3\CO[C@@H]4[C@H](O)C(C)=C[C@@H](C(=O)O1)[C@]34O)O2 [Ivermectin B1a]	2.85
CCNc1nc(NC(C)C(C)C)nc(SC)n1 (centres unmarked) [Dimethametryn]	> 90
N=C(N)S(=O)O [Amino(imino)methanesulfinic acid]	> 90
C=CCN1C[C@H](C)N([C@H](c2ccc(C(=O)N(CC)CC)cc2)c2cccc(OC)c2)C[C@H]1C [SNC 80]	28.8
CON(C)C(=O)Nc1ccc(Cl)c(Cl)c1 [Linuron]	> 90
O=C1CCC(N2C(=O)c3ccccc3C2=O)C(=O)N1 (centres unmarked) [Thalidomide]	> 90
CCN1C[C@]2(COC)[C@H](O)C[C@H](OC)[C@]34C1[C@H]([C@H](OC)[C@H]23)[C@]1(OC(C)=O)[C@H]2[C@@H](OC(=O)c3ccccc3)[C@](O)(C[C@H]24)[C@@H](OC)[C@@H]1O [Aconitine]	> 50
CN[C@@H]1C[C@@H](c2ccc(Cl)c(Cl)c2)c2ccccc21 [Indatraline hydrochloride]	10
O=C(CCCCCCCCc1cccnc1)N1CCC(C=C(c2ccccc2)c2ccccc2)CC1 [Ro 23-7637]	26.1
C=CC(=O)OCCOCCOCC [2-(2-Ethoxyethoxy)ethyl prop-2-enoate]	> 90
C[C@H]1[C@H]2CC[C@H]3[C@@H]4CC=C5C[C@@H](N(C)C)CC[C@]5(C)[C@H]4CC[C@]23CN1C [Conessine]	> 50
CCN(CC)/[N+]([O-])=N/O [1,1-Diethyl-2-hydroxy-2-nitrosohydrazine diethylamine]	> 50
Cc1cc(C)c(O)c(C)c1 [2,4,6-Trimethylphenol]	> 90
Cc1cc(C(C)(C)c2ccc(O)c(C)c2)ccc1O [3,3'-Dimethylbisphenol A]	> 90

Compound	CC50 at 24 h [µM]
Cc1cc(O)c(C(C)(C)C)cc1Sc1cc(C(C)(C)C)c(O)cc1C [4,4'-Thiobis(6-tert-butyl-m-cresol)]	3.64
CCC1NC(=O)c2cc(S(N)(=O)=O)c(Cl)cc2N1 (centres unmarked) [Quinethazone]	> 20
CNC(C)CCC=C(C)C (centres unmarked) [Isometheptene hydrochloride]	> 50
Cc1ccc(C(=O)Nc2ccc(S(=O)(=O)O)c3cc(S(=O)(=O)O)cc(S(=O)(=O)O)c23)cc1NC(=O)c1cccc(NC(=O)Nc2cccc(C(=O)Nc3cc(C(=O)Nc4ccc(S(=O)(=O)O)c5cc(S(=O)(=O)O)cc(S(=O)(=O)O)c45)ccc3C)c2)c1 [Suramin]	> 50
CCc1cccc(C)c1N [2-Ethyl-6-methylaniline]	> 90
Cc1cccc(Nc2ncccc2C(=O)O)c1C [Nixylic acid]	> 50
CCCCCCCC(=O)O [Octanoic acid]	> 90
CCC(NC(C)C)C(O)c1ccc(O)c(O)c1 (centres unmarked) [Isoetharine mesylate]	> 50
CCCCCCCCCCC=CC#N [Tridec-2-enenitrile]	> 90
COc1ccc2nc(NC(=O)Nc3ccccc3)sc2c1 [Frentizole]	> 50
O[C@@H]1CO[C@H]2[C@@H]1OC[C@@H]2O [Isosorbide]	> 50
CN1CCC(OC(c2ccccc2)c2ccccc2)CC1 [Diphenylpyraline hydrochloride]	> 20
CCC1(c2cnc[nH]2)Cc2ccccc2C1 [Atipamezole hydrochloride]	> 50
N[C@@H](Cc1c[nH]c2ccccc12)C(=O)O [l-Tryptophan]	> 90
CC1(C)CCC(C)(C)c2cc(NC(=O)c3ccc(C(=O)O)cc3)ccc21 [Tamibarotene]	15.4
CCCCCCCN(CC)CCCC(O)c1ccc(NS(C)(=O)=O)cc1 (centres unmarked) [Ibutilide fumarate]	21.5
O=C(O)COc1ccc(Cl)cc1Cl [2,4-D, Dimethylamine salt]	> 90
c1ccc2c(c1)Sc1ccccc1N2CCN1CCCC1 [Pyrathiazine]	19.5
CCCCOC(=O)CCCCCCCC(=O)OCCCC [Dibutyl nonanedioate]	> 90
C=CCOC(=O)CCC1CCCCC1 [Prop-2-en-1-yl 3-cyclohexylpropanoate]	> 90
CCC(C)c1cc([N+](=O)[O-])cc([N+](=O)[O-])c1OC(=O)C=C(C)C (centres unmarked) [Binapacryl]	36.3
O=C(O)CSCC(=O)NC1CCSC1=O (centres unmarked) [Erdosteine]	> 50

Compound	CC50 at 24 h [µM]
CC(C)CCOC(=O)/C=C/c1ccccc1 [3-Methylbutyl cinnamate]	> 90
CC[N+](CC)(CC)CCOc1cccc(OCC[N+](CC)(CC)CC)c1OCC[N+](CC)(CC)CC [Gallamine triethiodide]	> 50
Cc1cn([C@H]2C[C@H](N=[N+]=[N-])[C@@H](CO)O2)c(=O)[nH]c1=O [3'-Azido-3'-deoxythymidine]	> 90
NC(Cc1c[nH]c2ccccc12)C(=O)O (racemic) [dl-Tryptophan]	> 50
CN=C=O [Methyl isocyanate]	> 90
O=C(Nc1ccc(Cl)cc1)Nc1ccc(Cl)c(C(F)(F)F)c1 [Cloflucarban]	6.22
CC(=O)c1ccc2c(c1)N(CCCN1CCC(CCO)CC1)c1ccccc1S2 [Piperacetazine]	10.7
CCCCCOC(=O)c1ccccc1C(=O)OCCCCC [Dipentyl phthalate]	> 90
O=C(NCCCN1CCOCC1)c1ccc(Cl)cc1 [Eprobemide]	> 50
CCC1OCC(COc2ccc(Oc3ccccc3)cc2)O1 (centres unmarked) [Diofenolan]	> 90
C[N+](C)(C)CC(O)CCl (centres unmarked) [Dextrosil]	> 90
CCCC(CCC)C(=O)OC1C[C@H]2CC[C@@H](C1)[N+]2(C)C (some centres unmarked) [Anisotropine methylbromide]	> 50
C=CC(C)(C)C [3,3-Dimethyl-1-butene]	> 90
Cc1cc(O)no1 [Hymexazol]	> 100
O=C(O)c1ccc(Cl)c(Cl)c1 [3,4-Dichlorobenzoic acid]	> 90
O=C1CCCN1CCO [1-(2-Hydroxyethyl)pyrrolidin-2-one]	> 90
CCCCCCCCCCCCCCCC(=O)OC [Methyl hexadecanoate]	> 30
CCOc1ccc2[nH]cc(C(=O)NCc3ccccc3)c(=O)c2n1 [CP-457920]	> 90
CCO [Ethanol]	> 100
CCCc1ccc(N)cc1 [4-Propylaniline]	> 90
CCNc1nc(N)nc(Cl)n1 [Deisopropylatrazine]	> 90

same assay, conditions: rat, gh3-tre-luc cells, AC50 (uM) modified / 1000, Tox21_110001=Tox21_111251; viability, 1 nM T3 present, 24 h

Compound	CC50 at 24 h [µM]
C[C@]12N[C@H](Cc3ccccc31)c1ccccc12 [Dizocilpine maleate]	> 50

same assay, conditions: rat, gh3-tre-luc cells, AC50 (uM) modified / 1000, Tox21_110001=Tox21_112760; viability, 1 nM T3 present, 24 h

Compound	CC50 at 24 h [µM]
C[C@]12CC[C@H]3[C@@H](CCC4=C(O)C(=O)CC[C@@H]43)[C@@H]1CC[C@@H]2OC(=O)CCC1CCCC1 [Oxabolone cipioncate]	> 50

same assay, conditions: rat, gh3-tre-luc cells, AC50 (uM) modified / 1000, Tox21_110001=Tox21_113359; viability, 1 nM T3 present, 24 h

Compound	CC50 at 24 h [µM]
CCOP(=S)(OCC)SCSc1ccc(Cl)cc1 [Carbophenothion]	> 50

same assay, conditions: rat, gh3-tre-luc cells, AC50 (uM) modified / 1000, Tox21_110001=Tox21_201457; viability, 1 nM T3 present, 24 h

Compound	CC50 at 24 h [µM]
O=NN(c1ccccc1)c1ccccc1 [N-Nitrosodiphenylamine]	> 90

same assay, conditions: rat, gh3-tre-luc cells, AC50 (uM) modified / 1000, Tox21_110001=Tox21_201593; viability, 1 nM T3 present, 24 h

Compound	CC50 at 24 h [µM]
CCCCOCCOP(=O)(OCCOCCCC)OCCOCCCC [Tris(2-butoxyethyl) phosphate]	> 90

same assay, conditions: rat, gh3-tre-luc cells, AC50 (uM) modified / 1000, Tox21_110001=Tox21_202262; viability, 1 nM T3 present, 24 h

Compound	CC50 at 24 h [µM]
OCC(O)CCl (centres unmarked) [3-Chloro-1,2-propanediol]	> 90

same assay, conditions: rat, gh3-tre-luc cells, AC50 (uM) modified / 1000, Tox21_110001=Tox21_300220; viability, 1 nM T3 present, 24 h

Compound	CC50 at 24 h [µM]
N#Cc1ccc(N(CC(N)=O)CC(F)(F)F)cc1C(F)(F)F [GSK232420A]	> 90

same assay, conditions: rat, gh3-tre-luc cells, AC50 (uM) modified / 1000, Tox21_110001=Tox21_300398; viability, 1 nM T3 present, 24 h

Compound	CC50 at 24 h [µM]
CCOP(=S)(OCC)SCSCC [Phorate]	> 90

same assay, conditions: rat, gh3-tre-luc cells, AC50 (uM) modified / 1000, Tox21_110001=Tox21_301070; viability, 1 nM T3 present, 24 h

Compound	CC50 at 24 h [µM]
BrCCCCBr [1,4-Dibromobutane]	> 90

same assay, conditions: rat, gh3-tre-luc cells, AC50 (uM) modified / 1000, Tox21_110001=Tox21_301360; viability, 1 nM T3 present, 24 h

Compound	CC50 at 24 h [µM]
CON(C)C(=O)Nc1ccc(Cl)cc1 [Monolinuron]	> 90

same assay, conditions: rat, gh3-tre-luc cells, AC50 (uM) modified / 1000, Tox21_110001=Tox21_301426; viability, 1 nM T3 present, 24 h

Compound	CC50 at 24 h [µM]
CCOP(=S)(OCC)SCSc1ccc(Cl)cc1 [Carbophenothion]	> 90

same assay, conditions: rat, gh3-tre-luc cells, AC50 (uM) modified / 1000, Tox21_110001=Tox21_302891; viability, 1 nM T3 present, 24 h

Compound	CC50 at 24 h [µM]
CCCCOCCOP(=O)(OCCOCCCC)OCCOCCCC [Tris(2-butoxyethyl) phosphate]	58.5
